Test results taken from patent publication US11992506B2, “Stem cell derived pancreatic islet differentiation” (Vertex Pharmaceuticals Incorporated, priority 2021, dated 2024).
“And” between values parts separate entries of the source, which are not always exact repeats. Identical values can stand only once.

What was measured:
[1] = tested on: PDX1-positive, NKX-negative cells; test: Effects of differentiation agents on pancreatic islet cell differentiation (ISL1/NKX6.1 flow cytometry); assay type: cell-based; conditions: for % of beta cells in S5D6 cell population: agents added to the base protocol on S4D5, S5D1, S5D2, FOXOi 1 μM, XAV 2 μM (present S5D1-4), TPB or PDBU 0.5 μM, XXI 2 μM
Procedure: FoxO1 inhibitor (FoxOi), Wnt inhibitor (XAV), Notch inhibitor (XXI), and/or PKC activator (PDBU or TPB) were tested for their effects on pancreatic islet cell differentiation.
PDX1-positive, NKX-negative cells were administered KGF (50 ng/ml), Sant-1 (250 nM), thiazovivin (2.5 μM), activin A (5 ng/ml), and retinoic acid (100 nM) for a period of six days (S4D1-S4D6) in a media including polyvinyl alcohol-80 (PVA-80) to generate a second population of cells. On day S4D5, the cells may also have been administered an additional reagent or combination of reagents as outlined in Table 5. After the six days, the second population of cells was administered XXI (2 μM), Alk5i (10 μM), GC-1 (1 μM), LDN-193189 (100 nM), thiazovivin (2.5 μM), staurosporine (3 nM), DZNEP (100 nM), Sant-1 (250 nM), retinoic acid (50 nM), and betacellulin (20 ng/ml) for two days (S5D1-S5D2) in a media comprising PVA-89. On days S5D1 and S5D2, the cells may also have been administered an additional reagent or combination of reagents as outlined in Table 5. On days S5D3-S5D6, the cells were administered XXI (2 μM), Alk5i (10 μM), GC-1 (1 μM), LDN-193189 (100 nM), thiazovivin (2.5 μM), staurosporine (3 nM), and DZNEP (100 nM). Cells were collected for analysis on day […].

EZH2 = EZH2 (Homo sapiens, UniProt Q15910); conditions: cited from earlier work
Chain of EZH2 (Q15910 whole entry, species assumed): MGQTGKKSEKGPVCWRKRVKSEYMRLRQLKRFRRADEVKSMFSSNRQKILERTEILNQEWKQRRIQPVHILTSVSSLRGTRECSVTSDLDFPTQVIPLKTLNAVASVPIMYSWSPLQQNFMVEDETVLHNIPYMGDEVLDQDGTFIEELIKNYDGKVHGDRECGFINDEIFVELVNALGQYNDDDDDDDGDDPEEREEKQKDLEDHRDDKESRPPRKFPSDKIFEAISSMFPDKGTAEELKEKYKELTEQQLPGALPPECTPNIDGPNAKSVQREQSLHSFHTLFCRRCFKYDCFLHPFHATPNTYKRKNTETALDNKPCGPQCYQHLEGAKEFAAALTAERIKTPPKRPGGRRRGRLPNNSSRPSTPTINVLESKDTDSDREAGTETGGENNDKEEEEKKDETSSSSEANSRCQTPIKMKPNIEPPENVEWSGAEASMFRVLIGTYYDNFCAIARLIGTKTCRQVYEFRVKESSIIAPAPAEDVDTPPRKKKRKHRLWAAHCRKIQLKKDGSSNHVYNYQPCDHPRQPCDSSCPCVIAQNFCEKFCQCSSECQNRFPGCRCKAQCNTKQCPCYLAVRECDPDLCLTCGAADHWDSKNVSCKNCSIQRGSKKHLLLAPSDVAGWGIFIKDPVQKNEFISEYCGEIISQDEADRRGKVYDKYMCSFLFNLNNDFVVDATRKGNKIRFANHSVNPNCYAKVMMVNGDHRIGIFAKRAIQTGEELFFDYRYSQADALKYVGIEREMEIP
Chain of EZH2 (O75530 whole entry partner, species assumed): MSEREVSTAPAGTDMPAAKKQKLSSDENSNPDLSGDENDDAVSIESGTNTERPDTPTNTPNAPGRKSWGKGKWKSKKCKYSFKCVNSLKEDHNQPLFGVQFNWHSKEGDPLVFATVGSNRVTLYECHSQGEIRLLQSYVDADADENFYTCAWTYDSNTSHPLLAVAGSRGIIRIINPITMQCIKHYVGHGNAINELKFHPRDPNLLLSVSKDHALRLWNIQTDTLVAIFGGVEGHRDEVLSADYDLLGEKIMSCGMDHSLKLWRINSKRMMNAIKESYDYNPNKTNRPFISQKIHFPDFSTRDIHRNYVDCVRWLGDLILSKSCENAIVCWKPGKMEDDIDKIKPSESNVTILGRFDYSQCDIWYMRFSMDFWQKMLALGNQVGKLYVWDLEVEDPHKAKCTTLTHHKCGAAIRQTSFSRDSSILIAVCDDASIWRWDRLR
Chain of EZH2 (Q15022 whole entry partner, species assumed): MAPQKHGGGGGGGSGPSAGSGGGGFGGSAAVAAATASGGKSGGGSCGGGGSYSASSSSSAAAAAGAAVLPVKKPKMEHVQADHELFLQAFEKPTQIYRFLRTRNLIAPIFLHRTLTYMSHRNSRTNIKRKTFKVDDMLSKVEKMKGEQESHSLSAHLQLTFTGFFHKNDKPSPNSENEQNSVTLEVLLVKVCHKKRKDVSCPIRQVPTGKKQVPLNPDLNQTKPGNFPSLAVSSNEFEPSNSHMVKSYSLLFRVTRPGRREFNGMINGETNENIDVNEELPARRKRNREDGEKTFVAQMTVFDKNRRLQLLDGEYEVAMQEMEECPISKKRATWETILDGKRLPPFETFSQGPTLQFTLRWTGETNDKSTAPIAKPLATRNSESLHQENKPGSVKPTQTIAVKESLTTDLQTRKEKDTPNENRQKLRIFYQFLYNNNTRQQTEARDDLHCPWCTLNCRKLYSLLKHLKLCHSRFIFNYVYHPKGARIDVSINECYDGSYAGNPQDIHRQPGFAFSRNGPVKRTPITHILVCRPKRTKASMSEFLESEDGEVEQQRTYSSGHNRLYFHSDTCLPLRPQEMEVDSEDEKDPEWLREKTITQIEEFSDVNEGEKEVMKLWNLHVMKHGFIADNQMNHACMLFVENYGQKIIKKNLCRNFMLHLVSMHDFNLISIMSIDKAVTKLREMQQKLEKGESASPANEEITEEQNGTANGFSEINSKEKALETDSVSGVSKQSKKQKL

SC-islet cells = test: Effect of additional FGF2 in stage 6 of differentiation; assay type: cell-based, human; conditions: FGF2 100 ng/ml added to stage 6 media (Media A) of Protocol 3
Procedure: SC-islet cells were differentiated using Protocol 1, Protocol 2, Protocol 3, or Protocol 3 with the addition of FGF2 (at 100 ng/ml) in stage 6 media (Media A shown in Table 6). Cells were collected on S6D3, S6D7, and […] for analysis. Cells were also tested for insulin content (FIG. 35A) and glucagon content (FIG. 35B).

Molecule	% of beta cells in S5D6 cell population [1]	also measured
CCn1cc(C(=O)O)c(=O)c2c(N)c(F)c(NC3CCCCC3)cc21 [FOXOi]	19% and 13%	–
CC[C@H](C)n1cc(C)c2c(C(=O)NCc3c(C)cc(C)[nH]c3=O)cc(-c3ccc(N4CCNCC4)nc3)cc21 [GSK126]	–	selectivity over EZH1 (EZH2; SAM-competitive EZH2 inhibitor): 150 fold
CCCC(=O)O[C@@H]1[C@@H](C)[C@@]2(O)[C@@H](C=C(CO)C[C@]3(O)C(=O)C(C)=C[C@@H]23)[C@@H]2C(C)(C)[C@]12OC(=O)CCC [PDBU, Phorbol 12,13-dibutyrate]	28%	–
CC(C)[C@H]1C(=O)N[C@H](CO)Cc2cc(NC(=O)/C=C/C=C/c3ccc(C(F)(F)F)cc3)ccc2N1C [TPB, ((2S,5S)-(E,E)-8-(5-(4-(Trifluoromethyl)phenyl)-2,4-pentadienoylamino)benzolactam)]	17%	beta cell production (in words) ([1]; agents added on S4D5 and/or S5, FIGS. 9-15): did not result in more beta cell production
CCCc1cc(C)[nH]c(=O)c1CNC(=O)c1cc(-c2ccc(N3CCN(C(C)C)CC3)nc2)cc2c1cnn2C(C)C [UNC1999]	–	selectivity compared with GSK126 (EZH2; analogue of GSK126): less selective
Oc1nc(-c2ccc(C(F)(F)F)cc2)nc2c1CSCC2 [XAV]	5%	–
FGF2: growth factor from the FGF family, added at 100 ng/ml in stage 6 media	–	glucagon-expressing cells (SC-alpha cells) (SC-islet cells): increases
